This is an account of results in patent US12629392B2, “Method of treating covid-19 infection using superparamagnetic iron oxide nanoparticle” (Imam Abdulrahman Bin Faisal University, priority 2023, dated 2026).

One experiment concerns A549 cells. The experiment in a line: Cell viability (MTT) assay, A549 cells. The format is cell-based, human. The following applies: 48 hours, two-way ANOVA with Dunnett's.
A further experiment relates to HEK293 cells. The experiment in a line: Cell viability (MTT) assay, HEK293 cells. The format is cell-based, human. Particulars: 48 hours, two-way ANOVA with Dunnett's.
[1] abbreviates: Dose 1 (0.025 mg/ml nanocomposite; 0.001125 mg/ml free Cp, Rib).
The mark [2] stands for this setting: Dose 2 (0.05 mg/ml nanocomposite; 0.00225 mg/ml free Cp, Rib).
[3] abbreviates: Dose 3 (0.1 mg/ml nanocomposite; 0.0045 mg/ml free Cp, Rib).
Where [4] appears, read: Dose 4 (0.5 mg/ml nanocomposite; 0.0225 mg/ml free Cp, Rib).

Regarding `N.N.[Cl][Pt][Cl]` [Cp, cisplatin], the “Significant (cell viability vs no-treatment control)” value in the experiment with A549 cells (setting [1]) is listed as “No”; in the experiment on A549 cells (setting [2]) it was “No”; in the experiment with A549 cells (setting [3]), “No”; in the experiment with A549 cells (setting [4]), “Yes”; in the experiment on HEK293 cells (setting [1]), “No”; in the experiment on HEK293 cells (setting [2]) it was “No”. For the same compound, the “Significant (cell viability vs no-treatment control)” value is listed as “No” in the experiment with HEK293 cells (setting [3]) and “Yes” in the experiment on HEK293 cells (setting [4]).

As for `NC(=O)c1ncn([C@@H]2O[C@H](CO)[C@@H](O)[C@H]2O)n1` [Rib, 1-β-D-Ribofuranosyl-1,2,4-triazole-3-carboxamide], the “Significant (cell viability vs no-treatment control)” value was “No” with A549 cells (setting [1]); “No” in the experiment on A549 cells (setting [2]); “No” with A549 cells (setting [3]); “Yes” in the experiment on A549 cells (setting [4]); “No” in the experiment on HEK293 cells (setting [1]); “No” in the experiment with HEK293 cells (setting [2]). Further, the “Significant (cell viability vs no-treatment control)” value in the experiment with HEK293 cells (setting [3]) and in the experiment with HEK293 cells (setting [4]) was “Yes” throughout.
